Laboratory results from US5413990A, “N-terminus modified analogs of LHRH” (Tap Pharmaceuticals Inc., priority 1993, dated 1995).
Numbered stars: 1 amine (or outer) side, 2 acyl side, 3 side chain; on linkers, the order of the positions; unused ones are H or OH. Square brackets hold non-standard residues; d marks the D form. Peptide text beside a SMILES is read from it. * marks the point of attachment. X3 = NC(=O)N[C@H](Cc1ccc2ccccc2c1)C(=O)*; dPhe(4-Cl) = N[C@H](Cc1ccc(Cl)cc1)C(=O)O; Desaminotyrosyl = O=C(CCc1ccc(O)cc1)*; d2Nal = N[C@H](Cc1ccc2ccccc2c1)C(=O)O; Lys(iPr) = CC(C)NCCCC[C@H](N)C(=O)O; NMeY = CN[C@@H](Cc1ccc(O)cc1)C(=O)O; Cyclopropanecarbonyl = O=C(C1CC1)*; dCit = NC(=O)NCCC[C@@H](N)C(=O)O; d3Pal = N[C@H](Cc1cccnc1)C(=O)O; Suc = O=C(CCC(=O)[*:2])[*:1]; Succinamoyl = NC(=O)CCC(=O)*; Nicotinoyl = O=C(c1cccnc1)*; X2 = O=C(CCc1ccc2ccccc2c1)*; Morpholide = C1CN(*)CCO1; PhAc = O=C(Cc1ccccc1)*; CO = O=C([*:1])[*:2]; Propionyl = CCC(=O)*; Butyryl = CCCC(=O)*; Glycolyl = O=C(CO)*; For = O=C*

The compounds below were run against T1, LHRH (Rattus norvegicus, UniProt P30969) (assay: in vitro test for LHRH antagonist potency (pA2)). Details: negative logarithm of the antagonist concentration required to shift the response curve produced by the agonist leuprolide to two-fold higher concentration.
T1 construct: evaluated in an in vitro test for LHRH antagonist potency (pA2); endogenous in cells; host or cells: pituitary cells (rat, from my own knowledge of the cited method)
T1 sequence (P30969 1-327): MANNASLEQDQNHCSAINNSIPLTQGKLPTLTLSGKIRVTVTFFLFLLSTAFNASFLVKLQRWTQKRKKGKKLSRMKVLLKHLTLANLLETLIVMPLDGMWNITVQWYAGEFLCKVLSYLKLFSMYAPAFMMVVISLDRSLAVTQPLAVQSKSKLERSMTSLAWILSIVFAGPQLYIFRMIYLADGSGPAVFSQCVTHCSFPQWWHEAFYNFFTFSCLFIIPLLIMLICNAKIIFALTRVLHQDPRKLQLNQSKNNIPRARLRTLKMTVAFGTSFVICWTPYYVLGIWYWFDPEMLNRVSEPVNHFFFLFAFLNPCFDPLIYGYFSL
Assay type: cell-based
Description: Representative compounds of the present invention were evaluated in an in vitro test for LHRH antagonist potency (pA2). The test employed the method detailed in F. Haviv, et al. J. Med. Chem., 32:2340-2344 (1989). The values of pA2 are the negative logarithms of the concentration of the particular antagonist test compound required to shift the response curve produced by the agonist leuprolide to two-fold higher concentration. (Leuprolide is the LHRH agonist having the structure 5-oxo-Pro^1 -His^2 -Trp^3 -Ser^4 -Tyr^5 -D-Leu^6 -Leu^7 -Arg^8 -Pro^9 -NHEt and is disclosed and claimed in U.S. Pat. No. 4,005,063.) Typically pA2 values of 9.5 or greater are indicative of good LHRH antagonist potency, with values of 10.0 or greater being preferred.
In the case of CC(C)C[C@H](NC(=O)[C@@H](CCCCNC(=O)c1cccnc1)NC(=O)[C@H](Cc1ccc(O)cc1)N(C)C(=O)[C@H](CO)NC(=O)[C@@H](Cc1cccnc1)NC(=O)[C@@H](Cc1ccc(Cl)cc1)NC(=O)[C@@H](Cc1ccc2ccccc2c1)NC(=O)CCc1ccc(O)cc1)C(=O)N[C@@H](CCCCNC(C)C)C(=O)N1CCC[C@H]1C(=O)N[C@H](C)C(N)=O [Example 2m, N-3-(4-Hydroxyphenyl)propionyl-D2Nal-D4ClPhe-D3Pal-Ser-NMeTyr-DLys(N-epsilon-Nicotinyl)-Leu-Lys(N-epsilon -Isopropyl)-Pro-DAlaNH2] (Desaminotyrosyl-[d2Nal][dPhe(4-Cl)][d3Pal]S[NMeY][dK](Nicotinoyl)L[Lys(iPr)]P[dA]-NH2), the Kb was 0.02 nM.
For CC(C)C[C@H](NC(=O)[C@@H](CCCCNC(=O)c1cccnc1)NC(=O)[C@H](Cc1ccc(O)cc1)N(C)C(=O)[C@H](CO)NC(=O)[C@@H](Cc1cccnc1)NC(=O)[C@@H](Cc1ccc(Cl)cc1)NC(=O)[C@@H](Cc1ccc2ccccc2c1)NC(=O)CCc1ccc2ccccc2c1)C(=O)N[C@@H](CCCCNC(C)C)C(=O)N1CCC[C@H]1C(=O)N[C@H](C)C(N)=O [Example 2o, N-3(2-Naphthyl)propionyl-D2Nal-D4ClPhe-D3Pal-Ser-NMeTyr-DLys(N-epsilon-Nicotinyl)-Leu-Lys(N-epsilon-Isopropyl) -Pro-DAlaNH2] (X2-[d2Nal][dPhe(4-Cl)][d3Pal]S[NMeY][dK](Nicotinoyl)L[Lys(iPr)]P[dA]-NH2), the Kb was 0.0794 nM.
For CC(C)C[C@H](NC(=O)[C@@H](CCCCNC(=O)c1cccnc1)NC(=O)[C@H](Cc1ccc(O)cc1)N(C)C(=O)[C@H](CO)NC(=O)[C@@H](Cc1cccnc1)NC(=O)[C@@H](Cc1ccc(Cl)cc1)NC(=O)[C@@H](Cc1ccc2ccccc2c1)NC(=O)CCC(=O)O)C(=O)N[C@@H](CCCCNC(C)C)C(=O)N1CCC[C@H]1C(=O)N[C@H](C)C(N)=O [Example 3, N-Succinyl-D2Nal-D4ClPhe-D3Pal-Ser-NMeTyr-DLys(Nicotinyl)-Leu-Lys(N-epsilon-lsopropyl.)-Pro-DAlaNH2] (Suc-[d2Nal][dPhe(4-Cl)][d3Pal]S[NMeY][dK](Nicotinoyl)L[Lys(iPr)]P[dA]-NH2), the Kb was 0.0513 nM.
Compound CC(C)C[C@H](NC(=O)[C@@H](CCCNC(N)=O)NC(=O)[C@H](Cc1ccc(O)cc1)N(C)C(=O)[C@H](CO)NC(=O)[C@@H](Cc1cccnc1)NC(=O)[C@@H](Cc1ccc(Cl)cc1)NC(=O)[C@@H](Cc1ccc2ccccc2c1)NC(=O)CO)C(=O)N[C@@H](CCCNC(=N)N)C(=O)N1CCC[C@H]1C(=O)N[C@H](C)C(N)=O [Example 4, N-Glycolyl-D2Nal-D4ClPhe-D3Pal-Ser-NMeTyr-DCit-Leu-Arg-Pro-DAlaNH2] (Glycolyl-[d2Nal][dPhe(4-Cl)][d3Pal]S[NMeY][dCit]LRP[dA]-NH2) has a Kb of 0.00661 nM.
CC(C)C[C@H](NC(=O)[C@@H](CCCNC(N)=O)NC(=O)[C@H](Cc1ccc(O)cc1)N(C)C(=O)[C@H](CO)NC(=O)[C@@H](Cc1cccnc1)NC(=O)[C@@H](Cc1ccc(Cl)cc1)NC(=O)[C@@H](Cc1ccc2ccccc2c1)NC=O)C(=O)N[C@@H](CCCNC(=N)N)C(=O)N1CCC[C@H]1C(=O)N[C@H](C)C(N)=O [Example 5a, N-Formyl-D2Nal-D4ClPhe-D3Pal-Ser-NMeTyr-DCit-Leu-Arg-Pro-DAlaNH2] (For-[d2Nal][dPhe(4-Cl)][d3Pal]S[NMeY][dCit]LRP[dA]-NH2) showed a Kb of 0.00447 nM.
CCC(=O)N[C@H](Cc1ccc2ccccc2c1)C(=O)N[C@H](Cc1ccc(Cl)cc1)C(=O)N[C@H](Cc1cccnc1)C(=O)N[C@@H](CO)C(=O)N(C)[C@@H](Cc1ccc(O)cc1)C(=O)N[C@H](CCCNC(N)=O)C(=O)N[C@@H](CC(C)C)C(=O)N[C@@H](CCCNC(=N)N)C(=O)N1CCC[C@H]1C(=O)N[C@H](C)C(N)=O [Example 5b, N-Propionyl-D2Nal-D4ClPhe-D3Pal-Ser-NMeTyr-DCit-Leu-Arg-Pro-DAlaNH2] (Propionyl-[d2Nal][dPhe(4-Cl)][d3Pal]S[NMeY][dCit]LRP[dA]-NH2) showed a Kb of 0.00347 nM.
In the case of CCCC(=O)N[C@H](Cc1ccc2ccccc2c1)C(=O)N[C@H](Cc1ccc(Cl)cc1)C(=O)N[C@H](Cc1cccnc1)C(=O)N[C@@H](CO)C(=O)N(C)[C@@H](Cc1ccc(O)cc1)C(=O)N[C@H](CCCNC(N)=O)C(=O)N[C@@H](CC(C)C)C(=O)N[C@@H](CCCNC(=N)N)C(=O)N1CCC[C@H]1C(=O)N[C@H](C)C(N)=O [Example 5c, N-Butyryl-D2Nal-D4ClPhe-D3Pal-Ser-NMeTyr-DCit-Leu-Arg-Pro-DAlaNH2] (Butyryl-[d2Nal][dPhe(4-Cl)][d3Pal]S[NMeY][dCit]LRP[dA]-NH2), the Kb was 0.00562 nM.
In the case of CC(C)C[C@H](NC(=O)[C@@H](CCCNC(N)=O)NC(=O)[C@H](Cc1ccc(O)cc1)N(C)C(=O)[C@H](CO)NC(=O)[C@@H](Cc1cccnc1)NC(=O)[C@@H](Cc1ccc(Cl)cc1)NC(=O)[C@@H](Cc1ccc2ccccc2c1)NC(=O)CCC(N)=O)C(=O)N[C@@H](CCCNC(=N)N)C(=O)N1CCC[C@H]1C(=O)N[C@H](C)C(N)=O [Example 5d, N-Succinamyl-D2Nal-D4ClPhe-D3Pal-Ser-NMeTyr-DCit-Leu-Arg-Pro-DAlaNH2] (Succinamoyl-[d2Nal][dPhe(4-Cl)][d3Pal]S[NMeY][dCit]LRP[dA]-NH2), the Kb was 0.00646 nM.
In the case of CC(C)C[C@H](NC(=O)[C@@H](CCCNC(N)=O)NC(=O)[C@H](Cc1ccc(O)cc1)N(C)C(=O)[C@H](CO)NC(=O)[C@@H](Cc1cccnc1)NC(=O)[C@@H](Cc1ccc(Cl)cc1)NC(=O)[C@@H](Cc1ccc2ccccc2c1)NC(=O)C1CC1)C(=O)N[C@@H](CCCNC(=N)N)C(=O)N1CCC[C@H]1C(=O)N[C@H](C)C(N)=O [Example 5e, N-Cyclopropylcarbonyl-D2Nal-D4ClPhe-D3PaI-Ser-NMeTyr-DCit-Leu-Arg-ProDAlaNH2] (Cyclopropanecarbonyl-[d2Nal][dPhe(4-Cl)][d3Pal]S[NMeY][dCit]LRP[dA]-NH2), the Kb was 0.0112 nM.
CC(C)C[C@H](NC(=O)[C@@H](CCCNC(N)=O)NC(=O)[C@H](Cc1ccc(O)cc1)N(C)C(=O)[C@H](CO)NC(=O)[C@@H](Cc1cccnc1)NC(=O)[C@@H](Cc1ccc(Cl)cc1)NC(=O)[C@@H](Cc1ccc2ccccc2c1)NC(=O)Cc1ccccc1)C(=O)N[C@@H](CCCNC(=N)N)C(=O)N1CCC[C@H]1C(=O)N[C@H](C)C(N)=O [Example 5f, NPhenylacetyl-D2Nal-D4ClPhe-D3Pal-Ser-NMeTyr-DCit-Leu-Arg-Pro-DAlaNH2] (PhAc-[d2Nal][dPhe(4-Cl)][d3Pal]S[NMeY][dCit]LRP[dA]-NH2) was tested, and the Kb was 0.0158 nM.
CC(C)C[C@H](NC(=O)[C@@H](CCCNC(N)=O)NC(=O)[C@H](Cc1ccc(O)cc1)N(C)C(=O)[C@H](CO)NC(=O)[C@@H](Cc1cccnc1)NC(=O)[C@@H](Cc1ccc(Cl)cc1)NC(=O)[C@@H](Cc1ccc2ccccc2c1)NC(=O)CCC(=O)O)C(=O)N[C@@H](CCCNC(=N)N)C(=O)N1CCC[C@H]1C(=O)N[C@H](C)C(N)=O [Example 6, N-Succinyl-D2Nal-D4ClPhe-D3Pal-Ser-NMeTyr-DCit-Leu-Arg-Pro-DAlaNH2] (Suc-[d2Nal][dPhe(4-Cl)][d3Pal]S[NMeY][dCit]LRP[dA]-NH2) showed a Kb of 0.0398 nM.
CC(C)C[C@H](NC(=O)[C@@H](CCCNC(N)=O)NC(=O)[C@H](Cc1ccc(O)cc1)N(C)C(=O)[C@H](CO)NC(=O)[C@@H](Cc1cccnc1)NC(=O)[C@@H](Cc1ccc(Cl)cc1)NC(=O)[C@@H](Cc1ccc2ccccc2c1)NC(N)=O)C(=O)N[C@@H](CCCNC(=N)N)C(=O)N1CCC[C@H]1C(=O)N[C@H](C)C(N)=O [Example 7, N:(Aminocarbonyl)-D2Nal-D4ClPhe-D3 Pal-Ser- NMeTyr-DCit-Leu-Arg-ProDAIaNH2] (X3-[dPhe(4-Cl)][d3Pal]S[NMeY][dCit]LRP[dA]-NH2) was tested, and the Kb was 0.00603 nM.
With CCNC(=O)N[C@H](Cc1ccc2ccccc2c1)C(=O)N[C@H](Cc1ccc(Cl)cc1)C(=O)N[C@H](Cc1cccnc1)C(=O)N[C@@H](CO)C(=O)N(C)[C@@H](Cc1ccc(O)cc1)C(=O)N[C@H](CCCNC(N)=O)C(=O)N[C@@H](CC(C)C)C(=O)N[C@@H](CCCNC(=N)N)C(=O)N1CCC[C@H]1C(=O)N[C@H](C)C(N)=O [Example 8a, N-(Ethylaminocarbonyl)-D2Nal- D4ClPhe-D3Pal-Ser-NMeTyr-DCit-Leu-Arg-ProDAlaNH2] ({NHEt-CO}-[d2Nal][dPhe(4-Cl)][d3Pal]S[NMeY][dCit]LRP[dA]-NH2) the Kb was 0.0933 nM.
Compound CC(C)C[C@H](NC(=O)[C@@H](CCCNC(N)=O)NC(=O)[C@H](Cc1ccc(O)cc1)N(C)C(=O)[C@H](CO)NC(=O)[C@@H](Cc1cccnc1)NC(=O)[C@@H](Cc1ccc(Cl)cc1)NC(=O)[C@@H](Cc1ccc2ccccc2c1)NC(=O)N1CCOCC1)C(=O)N[C@@H](CCCNC(=N)N)C(=O)N1CCC[C@H]1C(=O)N[C@H](C)C(N)=O [Example 8b, N-(Morpholinocarbonyl)-D2Nal-D4ClPhe-D 3Pal- Ser-NMeTyr-DCit-Leu-Arg-Pro-DAlaNH2] ({Morpholide-CO}-[d2Nal][dPhe(4-Cl)][d3Pal]S[NMeY][dCit]LRP[dA]-NH2) has a Kb of 0.02 nM.
